Publication PMC9227077, “Prediction Models for Brain Distribution of Drugs Based on Biomimetic Chromatographic Data” (Molecules, 2022)
Like-named read-outs stand apart in the source and are kept apart here.

What was measured:
[1] = most values in rats, average if more than one value; cited from earlier work
[2] = cited from earlier work; for logBB exper.: literature Kp,brain converted to logBB; for Kp,brain: total brain/total plasma, preferably rat studies
[3] = test system: human serum albumin; parameters: method as in ref 45 (a number printed in a supplementary file, which may have a reference list of its own: not looked up in the article's list); conditions: cited from earlier work
[4] = cited from earlier work
[5] = brain slice method; cited from earlier work
[6] = parameters: method as in ref 23, 24, 27, 29, 45 (a number printed in a supplementary file, which may have a reference list of its own: not looked up in the article's list); conditions: 100% aqueous mobile phase, previously obtained in authors' laboratory, cited from earlier work
[7] = rat brain tissue; cited from earlier work
[8] = test system: α1 acid glycoprotein; parameters: method as in ref 23, 24, 27, 29, 45 (a number printed in a supplementary file, which may have a reference list of its own: not looked up in the article's list); conditions: pH=7.4, 100% aqueous mobile phase; previously obtained in authors' laboratory; cited from earlier work
[9] = Unbound fraction in brain (fu,brain), brain homogenate method; conditions: Kb from literature fu,brain
Source text: However, Kp,uu,brain can be derived from Kp,brain by combining the unbound fraction of the drug in the plasma (fu,p) and in the brain (fu,brain) or the unbound brain volume of distribution, Vu,brain [7]. […] The relevant equations are included in Section 3. Evidently, fu,p is obtained by standard methods for plasma protein binding.
Experimentally determined Kp,brain values for 42 compounds were obtained from the literature and were converted to logBB. They preferably referred to rat studies in order to achieve homogeneity in the data. Experimental fu,brain values were available from the literature for 39 compounds in the dataset. When more than one value was available, the average was calculated. Most values were determined on rats.
The decimal logarithm of Kb, logKb, was used for the development of the models.

[10] = pH=7.4, isocratic, 10% acetonitrile, available for 37 compounds, remaining calculated by equation
[11] = octanol-water partition coefficient, experimental
[12] = pH=5.0, octanol-water, experimental
[13] = pH=7.4, octanol-water, experimental

Structure (SMILES)	fu,brain [1]	logBB exper. [2]	Kp,brain [2]	logk10,HSA [3, 10]	logP [4, 11]	logD [4, 12]	logD [4, 13]	Vu,brain [5] [mL/g brain]	logkw IAM ([6]; pH=5.0, PBS)	logkw IAM ([6]; pH=7.4, PBS)	Kp,uu,brain [7]	logkwAGP [8]	logKb exper. [9]	logP [4]	logk10,HSA [3]
CSc1ccc2c(c1)N(CCC1CCCCN1C)c1ccccc1S2 (centres unmarked) [Thioridazine]	0.001	0.24	1.74	1.59	5.90	3.06	3.34	3333.00							
O=C1NC(=O)C(c2ccccc2)(c2ccccc2)N1 [Phenytoin]	0.121	-0.04	0.91	0.44	2.24	1.95	2.17		1.94	1.75	0.45	1.60			
CNC(=C[N+](=O)[O-])NCCSCc1ccc(CN(C)C)o1 [Ranitidine]		-1.23	0.06	-0.41		-3.37	-0.53			0.61			1.317	1.28	
CN(C)C(=N)N=C(N)N [Metformin]								10.00		-0.37			1.270		
Cc1ncc2n1-c1ccc(Cl)cc1C(c1ccccc1F)=NC2 [Midazolam]	0.026	0.36	2.29	0.99		1.95	3.27	29.00	1.93	2.77	2.19				
CC(=O)Nc1ccc(O)cc1 [Acetaminophen]		-0.31	0.49	-0.56					-0.06	0.18	0.18	0.10	0.692		
CC(C)NCC(O)COc1cccc2ccccc12 (centres unmarked) [Propranolol]	0.025	0.64	4.37	0.48				112.00	1.63	2.33		2.20			
CN(C)C(=O)Oc1cccc([N+](C)(C)C)c1 [Neostigmine]	0.950			-1.91	-2.16	-2.16	-2.16	3.20	-0.08	0.37			1.270		
O=C(O)c1ccccc1O [Salicylic acid]	0.630							1.00	0.46	-0.08			0.230		
CCCC(C)(COC(N)=O)COC(N)=O [Meprobamate]	0.638			-0.36	0.70	1.07	0.70		0.54	0.72			0.245		
CCn1cc(C(=O)O)c(=O)c2cc(F)c(N3CCNCC3)cc21 [Norfloxacin]	0.580	-1.15	0.07	-0.92	-1.03	-1.17	-1.03	2.90			0.05		0.139		
CN(C)CCC=C1c2ccccc2CCc2ccccc21 [Amitriptyline]	0.010	0.98	9.55	0.89		1.13	2.50	310.00	2.06	2.99		2.40			
C=CCOc1ccccc1OCC(O)CNC(C)C (centres unmarked) [Oxprenolol]	0.280	0.025	1.06	-0.25		-0.61	0.32	11.80	0.87	1.47					
COc1ccc2c(c1)c(CC(=O)O)c(C)n2C(=O)c1ccc(Cl)cc1 [Indomethacin]	0.042	-1.26	0.05			2.95		14.00	2.93	2.41		1.59			1.76
